IC50 data for 27 compounds are collected here from patent US10450318B2, “CXCR4 receptor antagonists” (BRISTOL-MYERS SQUIBB COMPANY, priority 2015, dated 2019).

For this experiment, the target named is T1, CXCR4 receptors (Homo sapiens, UniProt P61073).
T1 construct: expressing endogenous CXCR4 receptors; endogenous in cells; host or cells: CCRF-CEM (human T lymphoblast cells)
T1 sequence (P61073 whole entry): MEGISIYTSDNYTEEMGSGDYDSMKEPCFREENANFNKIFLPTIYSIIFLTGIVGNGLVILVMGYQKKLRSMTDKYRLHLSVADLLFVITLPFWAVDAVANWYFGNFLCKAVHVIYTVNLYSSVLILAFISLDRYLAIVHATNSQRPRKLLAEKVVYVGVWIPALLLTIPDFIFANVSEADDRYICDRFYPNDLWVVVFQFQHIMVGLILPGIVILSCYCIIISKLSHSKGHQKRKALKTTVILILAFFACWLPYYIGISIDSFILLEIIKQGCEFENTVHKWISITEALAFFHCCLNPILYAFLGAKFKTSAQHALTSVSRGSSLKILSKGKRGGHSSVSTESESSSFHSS
The experiment in a line: CXCR4-CEM calcium flux assay, antagonist mode (inhibition of SDF-1α-induced calcium flux). The experiment is classed as cell-based. The following applies: inhibition of calcium flux induced by 4 nM SDF-1α in CCRF-CEM cells. How it is done: Exemplary compounds of the invention were tested for their ability to induce or inhibit calcium flux in CCRF-CEM cells. […] CXCR4-CEM Calcium Flux Assays. […] The cells were then equilibrated to room temperature for 30 minutes before assay. […] The serially diluted compounds were diluted to working concentrations with the same assay buffer to 0.5% DMSO. […] Activity of the compounds to induce calcium flux was monitored by FDSS in the “agonist mode” for 90 sec. For “antagonist mode” assessment, the cells are subsequently incubated for 25 min at room temperature. SDF-1α (R&D System Cat#350-NS/CF) was then added at a final concentration of 4 nM to stimulate the cells. Inhibition of SDF-1α-induced calcium flux was monitored by FDSS6000 for 90 sec. […] After correcting for background, EC50 values were determined. […] Inhibition data for the test compound over a range of concentrations was plotted as percentage inhibition of the test compound as compared to an internal control compound.
Regarding `CN(Cc1cn2c(N3CCN(Cc4ccncc4)CC3)nccc2n1)[C@H]1CCCc2cccnc21` [Example 29, (S)-N-methyl-N-({5-[4-(pyridin-4-ylmethyl)piperazin-1-yl]imidazo[1,2-c]pyrimidin-2-yl}methyl)-5,6,7,8-tetrahydroquinolin-8-amine], the IC50 amounted to 77 nM.
On to `CN(Cc1cn2c(N3CCN(C4CCC4)CC3)nccc2n1)[C@H]1CCCc2cccnc21` [Example 30, (S)-N-{[5-(4-cyclobutylpiperazin-1-yl)imidazo[1,2-c]pyrimidin-2-yl]methyl}-N-methyl-5,6,7,8-tetrahydroquinolin-8-amine], for which the IC50 came out at 190 nM.
Under `CN(Cc1cn2c(N3CCN(CC4CCCC4)CC3)nccc2n1)[C@H]1CCCc2cccnc21` [Example 31, (S)-N-({5-[4-(cyclopentylmethyl)piperazin-1-yl]imidazo[1,2-c]pyrimidin-2-yl}methyl)-N-methyl-5,6,7,8-tetrahydroquinolin-8-amine] stands 170 nM; under `CN(Cc1cn2c(N3CCN(CC4CCOC4)CC3)nccc2n1)[C@H]1CCCc2cccnc21` (stereo partly drawn) [Example 32, (S)-N-methyl-N-({5-[4-(oxolan-3-ylmethyl)piperazin-1-yl]imidazo[1,2-c]pyrimidin-2-yl}methyl)-5,6,7,8-tetrahydroquinolin-8-amine], 310 nM.
Regarding `CN(Cc1cn2c(N3CCN(CC(C)(C)C)CC3)nccc2n1)[C@H]1CCCc2cccnc21` [Example 33, (S)-N-({5-[4-(2,2-dimethylpropyl)piperazin-1-yl]imidazo[1,2-c]pyrimidin-2-yl}methyl)-N-methyl-5,6,7,8-tetrahydroquinolin-8-amine], the IC50 was determined as 1000 nM.
Consider `CN(Cc1cn2c(N3CCN(CCCc4ccccc4)CC3)nccc2n1)[C@H]1CCCc2cccnc21` [Example 34, (S)-N-methyl-N-({5-[4-(3-phenylpropyl)piperazin-1-yl]imidazo[1,2-c]pyrimidin-2-yl}methyl)-5,6,7,8-tetrahydroquinolin-8-amine], for which the IC50 came to 120 nM.
As for `CCN1CCN(c2nccc3nc(CN(C)[C@H]4CCCc5cccnc54)cn23)CC1` [Example 35, (S)-N-{[5-(4-ethylpiperazin-1-yl)imidazo[1,2-c]pyrimidin-2-yl]methyl}-N-methyl-5,6,7,8-tetrahydroquinolin-8-amine], the IC50 turned out to be 510 nM.
As to `CN(Cc1cn2c(N3CCN(CCC(F)(F)F)CC3)nccc2n1)[C@H]1CCCc2cccnc21` [Example 36, (S)-N-methyl-N-({5-[4-(3,3,3-trifluoropropyl)piperazin-1-yl]imidazo[1,2-c]pyrimidin-2-yl}methyl)-5,6,7,8-tetrahydroquinolin-8-amine], the IC50 is 30700 nM.
Consider `CN(Cc1cn2c(N3CCN(Cc4ccccc4)CC3)nccc2n1)[C@H]1CCCc2cccnc21` [Example 37, (S)-N-{[5-(4-benzylpiperazin-1-yl)imidazo[1,2-c]pyrimidin-2-yl]methyl}-N-methyl-5,6,7,8-tetrahydroquinolin-8-amine], for which the IC50 was 23 nM.
Under `CN1CCC(N2CCN(c3nccc4nc(CN(C)[C@H]5CCCc6cccnc65)cn34)CC2)CC1` [Example 38, (S)-N-methyl-N-({5-[4-(1-methylpiperidin-4-yl)piperazin-1-yl]imidazo[1,2-c]pyrimidin-2-yl}methyl)-5,6,7,8-tetrahydroquinolin-8-amine] stands 420 nM; under `CN(Cc1cn2c(N3CCN(CC(c4ccccc4)c4ccccc4)CC3)nccc2n1)[C@H]1CCCc2cccnc21` [Example 39, (S)-N-({5-[4-(2,2-diphenylethyl)piperazin-1-yl]imidazo[1,2-c]pyrimidin-2-yl}methyl)-N-methyl-5,6,7,8-tetrahydroquinolin-8-amine], 63 nM; under `CC(C)S(=O)(=O)N1CCN(c2nccc3nc(CN(C)[C@H]4CCCc5cccnc54)cn23)CC1` [Example 40, (S)-N-methyl-N-({5-[4-(propane-2-sulfonyl)piperazin-1-yl]imidazo[1,2-c]pyrimidin-2-yl}methyl)-5,6,7,8-tetrahydroquinolin-8-amine], 14400 nM.
`CN(Cc1cn2c(N3CCN(S(=O)(=O)c4cccnc4)CC3)nccc2n1)[C@H]1CCCc2cccnc21` [Example 41, (S)-N-methyl-N-({5-[4-(pyridine-3-sulfonyl)piperazin-1-yl]imidazo[1,2-c]pyrimidin-2-yl}methyl)-5,6,7,8-tetrahydroquinolin-8-amine]: the IC50 was 7500 nM.
For the compound `CN(Cc1cn2c(N3CCN(S(=O)(=O)c4cccc(Cl)c4)CC3)nccc2n1)[C@H]1CCCc2cccnc21` [Example 42, (S)-N-({5-[4-(3-chlorobenzenesulfonyl)piperazin-1-yl]imidazo[1,2-c]pyrimidin-2-yl}methyl)-N-methyl-5,6,7,8-tetrahydroquinolin-8-amine], the IC50 came out at 22700 nM.
Turning to `CN(Cc1cn2c(N3CCN(C(=O)Nc4ccccc4)CC3)nccc2n1)[C@H]1CCCc2cccnc21` [Example 43, 4-[2-({methyl[(S)-5,6,7,8-tetrahydroquinolin-8-yl]amino}methyl)imidazo[1,2-c]pyrimidin-5-yl]-N-phenylpiperazine-1-carboxamide], the IC50 amounted to 130 nM.
Under `CC(C)NC(=O)N1CCN(c2nccc3nc(CN(C)[C@H]4CCCc5cccnc54)cn23)CC1` [Example 44, 4-[2-({methyl[(S)-5,6,7,8-tetrahydroquinolin-8-yl]amino}methyl)imidazo[1,2-c]pyrimidin-5-yl]-N-(propan-2-yl)piperazine-1-carboxamide] stands 9360 nM.
Consider `CN(Cc1cn2c(N3CCN(C(=O)Nc4cccnc4)CC3)nccc2n1)[C@H]1CCCc2cccnc21` [Example 45, 4-[2-({methyl[(S)-5,6,7,8-tetrahydroquinolin-8-yl]amino}methyl)imidazo[1,2-c]pyrimidin-5-yl]-N-(pyridin-3-yl)piperazine-1-carboxamide], for which the half-maximal inhibitory concentration (IC50) was 66 nM.
For the compound `CC(CN1CCN(c2nccc3nc(CN(C)[C@H]4CCCc5cccnc54)cn23)CC1)c1ccccc1` (stereo partly drawn) [Example 46, (S)-N-methyl-N-({5-[4-(2-phenylpropyl)piperazin-1-yl]imidazo[1,2-c]pyrimidin-2-yl}methyl)-5,6,7,8-tetrahydroquinolin-8-amine], the IC50 amounted to 7.3 nM.
As to `CN(Cc1cn2c(N3CCN(Cc4ccc(-c5ccccc5)cc4)CC3)nccc2n1)[C@H]1CCCc2cccnc21` [Example 47, (S)-N-methyl-N-[(5-{4-[(4-phenylphenyl)methyl]piperazin-1-yl}imidazo[1,2-c]pyrimidin-2-yl)methyl]-5,6,7,8-tetrahydroquinolin-8-amine], the IC50 stood at 9.7 nM.
As to `CCOC(=O)CN1CCN(c2nccc3nc(CN(C)[C@H]4CCCc5cccnc54)cn23)CC1` [Example 48, ethyl 2-{4-[2-({methyl[(S)-5,6,7,8-tetrahydroquinolin-8-yl]amino}methyl)imidazo[1,2-c]pyrimidin-5-yl]piperazin-1-yl}acetate], the IC50 amounted to 300 nM.
As to `CN(Cc1cn2c(N3CCN(Cc4ncc[nH]4)CC3)nccc2n1)[C@H]1CCCc2cccnc21` [Example 49, (S)-N-({5-[4-(1H-imidazol-2-ylmethyl)piperazin-1-yl]imidazo[1,2-c]pyrimidin-2-yl}methyl)-N-methyl-5,6,7,8-tetrahydroquinolin-8-amine], the IC50 turned out to be 2.8 nM.
For the compound `CN(Cc1cn2c(N3CCN(CC(=O)O)CC3)nccc2n1)[C@H]1CCCc2cccnc21` [Example 50, 2-{4-[2-({methyl[(S)-5,6,7,8-tetrahydroquinolin-8-yl]amino}methyl)imidazo[1,2-c]pyrimidin-5-yl]piperazin-1-yl}acetic acid], the 50% inhibitory concentration (IC50) is 92 nM.
Regarding `CN(Cc1cn2c(N3CCN(Cc4nccn4C)CC3)nccc2n1)[C@H]1CCCc2cccnc21` [Example 51, (S)-N-methyl-N-[(5-{4-[(1-methyl-1H-imidazol-2-yl)methyl]piperazin-1-yl}imidazo[1,2-c]pyrimidin-2-yl)methyl]-5,6,7,8-tetrahydroquinolin-8-amine], the 50% inhibitory concentration (IC50) was 6 nM.
As for `Cc1cccc(CN2CCN(c3nccc4nc(CN(C)[C@H]5CCCc6cccnc65)cn34)CC2)c1` [Example 52, (S)-N-methyl-N-[(5-{4-[(3-methylphenyl)methyl]piperazin-1-yl}imidazo[1,2-c]pyrimidin-2-yl)methyl]-5,6,7,8-tetrahydroquinolin-8-amine], the IC50 worked out at 2.9 nM.
Take `Cc1ccc(CN2CCN(c3nccc4nc(CN(C)[C@H]5CCCc6cccnc65)cn34)CC2)cc1` [Example 53, (S)-N-methyl-N-[(5-{4-[(4-methylphenyl)methyl]piperazin-1-yl}imidazo[1,2-c]pyrimidin-2-yl)methyl]-5,6,7,8-tetrahydroquinolin-8-amine]: the IC50 was found to be 17 nM.
For `CN(Cc1cn2c(N3CCN(Cc4ccco4)CC3)nccc2n1)[C@H]1CCCc2cccnc21` [Example 54, (S)-N-({5-[4-(furan-2-ylmethyl)piperazin-1-yl]imidazo[1,2-c]pyrimidin-2-yl}methyl)-N-methyl-5,6,7,8-tetrahydroquinolin-8-amine], the half-inhibitory concentration (IC50) worked out at 5.6 nM.
In the case of `CN(Cc1cn2c(N3CCN(Cc4ccccn4)CC3)nccc2n1)[C@H]1CCCc2cccnc21` [Example 55, (S)-N-methyl-N-({5-[4-(pyridin-2-ylmethyl)piperazin-1-yl]imidazo[1,2-c]pyrimidin-2-yl}methyl)-5,6,7,8-tetrahydroquinolin-8-amine], the IC50 is 9 nM.
